# Assay results from ChEMBL document CHEMBL4808199, “Cyclopentenone-Containing Tetrahydroquinoline and Geldanamycin Alkaloids from Streptomyces malaysiensis as Potential Anti-Androgens against Prostate Cancer Cells” (J Nat Prod, 2021).
# The source made the active and inactive calls. The calls are words filed in the database; no cut-off is given here.
# Assays:
# NCI-H446 = assay: Cytotoxicity against human H446 cells; assay type: functional, cell-based
# CWR22R [1] = assay: Cytotoxicity against human 22Rv1 cells; assay type: functional, cell-based
# MGC-803 = assay: Cytotoxicity against human MGC-803 cells; assay type: functional, cell-based
# MDA-MB-231 = assay: Cytotoxicity against human MDA-MB-231 cells; assay type: functional, cell-based
# LNCaP C4-2B [2] = assay: Cytotoxicity against human C42B cells; assay type: functional, cell-based
# CWR22R [3] = assay: Induction of apoptosis in human 22Rv1 cells assessed as increase in cleaved 7 level after 24 hrs by immunoblotting analysis relative to control; assay type: functional, cell-based
# LNCaP C4-2B [4] = assay: Induction of apoptosis in human C4-2B cells assessed as increase in cleaved 7 level after 24 hrs by immunoblotting analysis relative to control; assay type: functional, cell-based
# CWR22R [5] = assay: Inhibition of androgen receptor protein expression in human 22Rv1 cells incubated for […] by Immunoblotting analysis; assay type: functional, cell-based
# LNCaP C4-2B [6] = assay: Induction of apoptosis in human C4-2B cells assessed as increase in cleaved PARP1 level after 24 hrs by immunoblotting analysis relative to control; assay type: functional, cell-based
# CWR22R [7] = assay: Induction of apoptosis in human 22Rv1 cells assessed as inhibition of KLK3 mRNA expression at 0.15 to 0.6 uM incubated for […] by qRT-PCR analysis; assay type: functional, cell-based; details: dose 0.15-0.6 µM
# CWR22R [8] = assay: Induction of apoptosis in human 22Rv1 cells assessed as increase in caspase 3/7 activity at 0.3 uM after 24 hrs relative to control; assay type: functional, cell-based
# CWR22R [9] = assay: Inhibition of colony formation in human 22Rv1 cells at 0.075 to 0.3 uM for 12 days by crystal violet staining based assay; assay type: functional, cell-based; details: dose 0.075-0.3 µM, time 12.0 day
# CWR22R [10] = assay: Induction of apoptosis in human 22Rv1 cells assessed as inhibition of Cmyc protein expression at 0.15 to 0.6 uM incubated for […] by Immunoblotting analysis; assay type: functional, cell-based; details: dose 0.15-0.6 µM, time […]
# LNCaP C4-2B [11] = assay: Induction of cell cycle arrest in human C4-2B cells assessed as accumulation of cells at G0/G1 phase at 0.3 uM incubated for 48 hrs by RED-B-HLi fluorescence assay (reference value: 41.57%); assay type: functional
# LNCaP C4-2B [12] = assay: Induction of cell cycle arrest in human C4-2B cells assessed as accumulation of cells at S phase at 0.3 uM incubated for 48 hrs by RED-B-HLi fluorescence assay (reference value: 42.69%); assay type: functional
# CWR22R [13] = assay: Inhibition of androgen receptor mRNA expression in human 22Rv1 cells incubated for […] by […] analysis; assay type: functional, cell-based
# LNCaP C4-2B [14] = assay: Induction of apoptosis in human C4-2B cells assessed as inhibition of Cmyc protein expression at 0.075 to 0.3 uM incubated for […] by Immunoblotting analysis; assay type: functional, cell-based; details: dose 0.075-0.3 µM
# LNCaP C4-2B [15] = assay: Inhibition of androgen receptor protein expression in human C4-2B cells incubated for […] by Immunoblotting analysis; assay type: functional, cell-based
# CWR22R [16] = assay: Induction of apoptosis in human 22Rv1 cells assessed as inhibition of KLK2 mRNA expression at 0.15 to 0.6 uM incubated for […] by qRT-PCR analysis; assay type: functional, cell-based; details: dose 0.15-0.6 µM
# LNCaP C4-2B [17] = assay: Inhibition of androgen receptor mRNA expression in human C4-2B cells incubated for […] by qRT-PCR analysis; assay type: functional, cell-based
# CWR22R [18] = assay: Induction of apoptosis in human 22Rv1 cells assessed as increase in cleaved PARP1 level after 24 hrs by immunoblotting analysis relative to control; assay type: functional, cell-based
# LNCaP C4-2B [19] = assay: Inhibition of colony formation in human C4-2B cells at 0.075 to 0.3 uM for 12 days by crystal violet staining based assay; assay type: functional, cell-based; details: dose 0.075-0.3 µM, time 12.0 day
# RWPE-1 = assay: Cytotoxicity against human RWPE-1 cells; assay type: cell-based
# LNCaP C4-2B [20] = assay: Induction of morphological changes in human C4-2B cells assessed as decrease in cell size incubated for 24 hrs by microscopy; assay type: functional, cell-based
# LNCaP C4-2B [21] = assay: Induction of morphological changes in human C4-2B cells assessed as increase in intracellular spaces incubated for 24 hrs by microscopy; assay type: functional, cell-based
# LNCaP C4-2B [22] = assay: Induction of apoptosis in human C4-2B cells assessed as inhibition of Cyclin E protein expression at 0.075 to 0.3 uM incubated for […] by Immunoblotting analysis; assay type: functional, cell-based; details: dose 0.075-0.3 µM
# LNCaP C4-2B [23] = assay: Induction of apoptosis in human C4-2B cells assessed as increase in caspase 3/7 activity at 0.3 uM after 24 hrs relative to control; assay type: functional, cell-based
# [24] = Selective index, ratio of IC50 for human RWPE1 to IC50 for human H446 cells
# LNCaP C4-2B [25] = assay: Induction of apoptosis in human C4-2B cells assessed as inhibition of KLK3 mRNA expression at 0.075 to 0.3 uM incubated for […] by qRT-PCR analysis; assay type: functional, cell-based; details: dose 0.075-0.3 µM
# LNCaP C4-2B [26] = assay: Induction of cell cycle arrest in human C4-2B cells assessed as accumulation of cells at G2-M phase at 0.3 uM incubated for 48 hrs by RED-B-HLi fluorescence assay (reference value: 15.74%); assay type: functional
# CWR22R [27] = assay: Induction of apoptosis in human 22Rv1 cells assessed as inhibition of Cyclin E protein expression at 0.15 to 0.6 uM incubated for […] by Immunoblotting analysis; assay type: functional, cell-based; details: dose 0.15-0.6 µM
# LNCaP C4-2B [28] = assay: Induction of apoptosis in human C4-2B cells assessed as inhibition of KLK2 mRNA expression at 0.075 to 0.3 uM incubated for […] by qRT-PCR analysis; assay type: functional, cell-based; details: dose 0.075-0.3 µM
# [29] = Selective index, ratio of IC50 for human RWPE1 to IC50 for human LNCaP C4-2B cells; assay type: toxicity; details: RWPE1 cells and LNCaP C4-2B cells, read-out: Selectivity Index
smiles,measurement,setting,value
COC(=O)[C@@]1(O)C(OC)=C2C[C@@H](C)C[C@H](OC)[C@H](O)[C@@H](C)/C=C(\C)[C@H](OC(N)=O)[C@@H](OC)/C=C\C=C(/C)C(=O)N[C@@H]1C2=O,IC50,NCI-H446,2.9 µM
same,IC50,CWR22R [1],> 40 µM
same,IC50,MGC-803,> 40 µM
same,IC50,MDA-MB-231,> 40 µM
same,IC50,LNCaP C4-2B [2],> 40 µM
COC[C@]1(CCC(C)=C(C)C)Nc2ccc(C(=O)NC3=C(O)CCC3=O)cc2C[C@@H]1Cl,IC50,NCI-H446,0.07 µM
same,Activity,CWR22R [3],Dose-Dependent Effect
same,IC50,CWR22R [1],0.27 µM
same,Activity,LNCaP C4-2B [4],Dose-Dependent Effect
same,inhibition,CWR22R [5],Active
same,Activity,LNCaP C4-2B [6],Dose-Dependent Effect
same,Activity,CWR22R [7],Active
same,Activity,CWR22R [8],Active
same,inhibition,CWR22R [9],Active
same,Activity,CWR22R [10],Active
same,Activity,LNCaP C4-2B [11],56.03%
same,Activity,LNCaP C4-2B [12],24.3%
same,inhibition,CWR22R [13],Active
same,Activity,LNCaP C4-2B [14],Active
same,inhibition,LNCaP C4-2B [15],Active
same,Activity,CWR22R [16],Active
same,IC50,MGC-803,0.11 µM
same,inhibition,LNCaP C4-2B [17],Active
same,Activity,CWR22R [18],Dose-Dependent Effect
same,IC50,MDA-MB-231,0.2 µM
same,inhibition,LNCaP C4-2B [19],Active
same,IC50,LNCaP C4-2B [2],0.067 µM
same,IC50,RWPE-1,0.21 µM
same,Activity,LNCaP C4-2B [20],Active
same,Activity,LNCaP C4-2B [21],Active
same,Activity,LNCaP C4-2B [22],Active
same,Activity,LNCaP C4-2B [23],Active
same,Selectivity Index,[24],3.1
same,Activity,LNCaP C4-2B [25],Active
same,Activity,LNCaP C4-2B [26],19.67%
same,Activity,CWR22R [27],Active
same,Activity,LNCaP C4-2B [28],Active
CC[C@@H]1[C@@H](C)O[C@@](OC)([C@@H](C)[C@H](O)[C@H](C)[C@H]2OC(=O)/C=C/C=C/[C@H](C)[C@@H]([C@@H](C)[C@@H](O)[C@H](C)[C@@]3(OC)C[C@@H](OC)[C@H](CC)[C@@H](C)O3)OC(=O)/C=C/C=C/[C@@H]2C)C[C@H]1OC,IC50,NCI-H446,> 40 µM
same,IC50,CWR22R [1],> 40 µM
same,IC50,MGC-803,> 40 µM
same,IC50,MDA-MB-231,> 40 µM
same,IC50,LNCaP C4-2B [2],> 40 µM
CO[C@H]1/C=C\C=C(/C)C(=O)NC2=CC(=O)C(O)=C(C[C@@H](C)C[C@H](OC)[C@H](O)[C@@H](C)/C=C(\C)[C@@H]1OC(N)=O)C2=O,IC50,NCI-H446,25 µM
same,IC50,CWR22R [1],25 µM
same,IC50,MGC-803,19 µM
same,IC50,MDA-MB-231,17 µM
same,IC50,LNCaP C4-2B [2],11 µM
CC[C@@H](/C=C/C(=O)[C@@H](C)[C@H](O)[C@H](C)[C@H]1OC(=O)/C=C/C=C/[C@H](C)[C@@H]([C@@H](C)[C@@H](O)[C@H](C)C(=O)/C=C/[C@H](CC)[C@@H](C)O)OC(=O)/C=C/C=C/[C@@H]1C)[C@@H](C)O,IC50,NCI-H446,25 µM
same,IC50,CWR22R [1],> 40 µM
same,IC50,MGC-803,> 40 µM
same,IC50,MDA-MB-231,> 40 µM
same,IC50,LNCaP C4-2B [2],25 µM
COC1=C2C[C@@H](C)C[C@H](OC)[C@H](O)[C@@H](C)/C=C(\C)[C@H](OC(N)=O)[C@@H](OC)/C=C\C=C(/C)C(=O)NC(=CC1=O)C2=O [GELDANAMYCIN],IC50,NCI-H446,2.2 µM
same,selectivity ratio,[29],7.6
same,IC50,CWR22R [1],0.85 µM
same,IC50,MGC-803,3.3 µM
same,IC50,MDA-MB-231,1.9 µM
same,IC50,LNCaP C4-2B [2],0.5 µM
same,IC50,RWPE-1,3.8 µM
CNC(=O)c1ccc(N2C(=S)N(c3ccc(C#N)c(C(F)(F)F)c3)C(=O)C2(C)C)cc1F [ENZALUTAMIDE],selectivity ratio,[29],> 2.2
same,IC50,CWR22R [1],38 µM
same,IC50,RWPE-1,> 40 µM
CO[C@H]1C[C@H](C)Cc2cc(O)cc(c2)NC(=O)/C(C)=C/CC[C@H](OC)[C@@H](OC(N)=O)/C(C)=C/[C@H](C)[C@H]1O,IC50,NCI-H446,28 µM
same,IC50,CWR22R [1],35 µM
same,IC50,MGC-803,> 40 µM
same,IC50,MDA-MB-231,> 40 µM
same,IC50,LNCaP C4-2B [2],32 µM
COC1=C2C[C@@H](C)C[C@H](OC)[C@H](O)[C@@H](C)/C=C(\C)[C@H](OC(N)=O)[C@@H](OC)/C=C\C=C(/C)C(=O)NC(=C(SC)C1=O)C2=O,IC50,NCI-H446,3.9 µM
same,IC50,CWR22R [1],3.7 µM
same,IC50,MGC-803,7.9 µM
same,IC50,MDA-MB-231,5.2 µM
same,IC50,LNCaP C4-2B [2],3.6 µM
CC[C@@H]1[C@@H](C)O[C@@](OC)(/C(C)=C/[C@H](C)[C@H]2OC(=O)/C=C/C=C/[C@H](C)[C@@H]([C@@H](C)/C=C(\C)[C@@]3(OC)C[C@@H](OC)[C@H](CC)[C@@H](C)O3)OC(=O)/C=C/C=C/[C@@H]2C)C[C@H]1OC,IC50,NCI-H446,25 µM
same,IC50,CWR22R [1],23 µM
same,IC50,MGC-803,10 µM
same,IC50,MDA-MB-231,7.2 µM
same,IC50,LNCaP C4-2B [2],14 µM
